Data taken from PMC4849654, “A High-Throughput Cell-Based Screen Identified a 2-[(E)-2-Phenylvinyl]-8-Quinolinol Core Structure That Activates p53” (PLoS ONE, 2016).

Key:
p21, BAX and FAS = assay: p53 target gene expression (p21, BAX, FAS) by qRT-PCR; type: cell-based; conditions: HeLa cells, 8h
Description: RNA from C33a and HeLa was isolated by Trizol and reverse transcribed using the first strand synthesis kit from NEB. Primers for p53, GAPDH and PUMA were used for quantitative real-time PCR (qRT-PCR). Primer sequences include: PUMA (forward primer: CTCAACGCACAGTACGAG and reverse primer: […]), FAS (forward primer: TCTGCCATAAGCCCTGT and reverse primer: GTCTGTGTACTCCTTCCCT), p21 (forward primer: […] and reverse primer: […]), and BAX (forward primer: […] and reverse primer: […]). ΔΔCt values were determined for PUMA using GAPDH to normalize data. Bio-rad SYBR green was used for the amplification and detection of the PCR products on an iCycler (Bio-rad).

p53-Luc = assay: In vitro E6 degradation assay (recombinant E6 with p53-Luc lysates); type: biochemical; conditions: 50 ng recombinant E6, 10 μM compound, C33a lysates, 6 hours
Protocol: For the in vitro assay, E6 was cloned into the pMAL vector in frame with the maltose binding protein. The E6 was expressed in bacteria and purified on amylose column. C33a cells were transfected with p53-Luc and incubated overnight. 50 ng recombinant E6 was incubated with 10 μM compound and C33a lysates for 6 hours at 30 degrees. We measured luciferase activity after 30 minutes. For the trypsin and chymotrypsin assay, C33a cells were incubated for 2 hours with the indicated compounds at 10 μM and assessed for chymotrypsin and trypsin activity using Proteasome-Glo assay (Promega). For the in vivo degradation assay, C33a cells expressing Ad-TE6 and Ad-p53 or expressing Ad-TE7 and Ad-Rb-Ren were treated for 8 hours with compounds. After incubation, cells were lysed and luciferase activity measured and p53 levels measured by Western blot.

E6AP = molecular target: T1, E6AP (Homo sapiens, UniProt Q05086); assay: Surface plasmon resonance binding to E6AP; conditions: SPR, data not shown
T1 sequence (Q05086 1-875): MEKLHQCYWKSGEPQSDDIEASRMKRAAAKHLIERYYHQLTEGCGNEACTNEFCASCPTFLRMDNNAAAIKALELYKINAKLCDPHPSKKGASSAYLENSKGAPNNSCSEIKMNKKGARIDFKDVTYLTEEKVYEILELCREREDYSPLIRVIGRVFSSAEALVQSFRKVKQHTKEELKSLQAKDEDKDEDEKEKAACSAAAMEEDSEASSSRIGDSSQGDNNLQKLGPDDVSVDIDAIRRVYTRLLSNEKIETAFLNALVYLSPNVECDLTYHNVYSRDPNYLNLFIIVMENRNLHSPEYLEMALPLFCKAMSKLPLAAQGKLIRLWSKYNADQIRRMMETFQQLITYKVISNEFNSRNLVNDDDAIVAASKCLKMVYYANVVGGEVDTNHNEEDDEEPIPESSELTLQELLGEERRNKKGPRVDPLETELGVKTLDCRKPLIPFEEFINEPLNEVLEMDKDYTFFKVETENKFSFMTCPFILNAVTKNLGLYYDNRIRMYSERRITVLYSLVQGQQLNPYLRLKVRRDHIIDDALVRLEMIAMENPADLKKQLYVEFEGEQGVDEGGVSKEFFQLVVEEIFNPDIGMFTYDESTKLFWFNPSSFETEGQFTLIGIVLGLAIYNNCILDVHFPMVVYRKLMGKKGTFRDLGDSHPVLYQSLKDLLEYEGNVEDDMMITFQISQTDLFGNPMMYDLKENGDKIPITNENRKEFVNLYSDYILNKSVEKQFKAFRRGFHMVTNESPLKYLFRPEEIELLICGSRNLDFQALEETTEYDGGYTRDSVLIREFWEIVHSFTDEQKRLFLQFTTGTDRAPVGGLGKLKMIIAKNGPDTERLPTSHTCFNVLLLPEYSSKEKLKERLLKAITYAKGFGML
Description: (§1) Free reactive amines were then blocked with ethanolamine.

p53 [1] = molecular target: T2, p53 (Homo sapiens, UniProt P04637); assay: Surface plasmon resonance (Biacore) binding to p53; conditions: SPR, recombinant p53 amine linked to Biacore chip, compound 1 to 25 μM
T2 construct: purchased R&D systems
Description: as §1

p53 [2] = molecular target: T3, p53 (Homo sapiens, UniProt P04637, R273C); assay: p53 nuclear localization by immunofluorescence; type: cell-based; conditions: C33a cells, 30 μM, 8 hrs
T3 construct: endogenous in cells; host or cells: C33a
Protocol: C33a cells were plated into chamber slides and treated with 30 μM of compounds 3 or, 4 for 4, or 8 hours. As a control, 30 μM cisplatin was used. The cells were fixed with 2.5% formaldehyde for 30 minutes, followed by permeabilization with 0.01% Triton X100 for 30 minutes. Cells were blocked with 5% goat serum for 30 minutes and stained overnight with anti-p53 (Santa Cruz, antibody FL-303) or anti-phospho-H2A.X (cell signaling) in 1% FCS in PBS at 4°. The following day, the cells were washed with PBS and incubated for 45 minutes with anti-rabbit-FITC and DAPI in 1% FCS in PBS. The cells were washed and mounted with ProLong Gold.

[3] = tested on: proteasome chymotrypsin-like activity; assay: Proteasome-Glo chymotrypsin-like activity; type: cell-based; conditions: C33a cells, 2 hrs, 10 μM or 30 μM
C33a cells = assay: Cell viability (Cell Titer Glo), C33a; type: cell-based
Protocol: (§2) For the viability assays, 20,000 C33a, HeLa, or siHA cells were plated in white 96 well flat bottom plates. The cells were treated with compounds at concentrations from 0.5 to 30 μM for 48 hrs. After incubation, Cell Titer Glo (Promega) was added to the cells and luminescence read in a Tecan II plate reader. For annexin V and PI staining, 500,000 C33a cells were treated with inhibitor for 24 hrs. The cells were stained with Annexin V-FITC and PI according to eBioscience manufacturer’s instructions and analyzed by flow cytometry.

SQ20B cells = assay: Cell viability, SQ20B; type: cell-based; conditions: mutant p53
[4] = tested on: proteasome trypsin-like activity; assay: Proteasome-Glo trypsin-like activity; type: cell-based; conditions: C33a cells, 2 hrs, 10 μM or 30 μM
siHA cells = assay: Cell viability (Cell Titer Glo), siHA; type: cell-based; conditions: 48h
Protocol: as §2

COc1ccc(/C=C/c2ccc3cccc(O)c3n2)cc1OC [compound 4]
expression of p21, BAX and FAS (p21, BAX and FAS): induced expression
restoration of p53 levels in vitro (p53-Luc): restored p53 levels in vitro to similar levels as the proteasome inhibitor MG132
affinity for E6AP (E6AP): did not have detectable affinity
Kd (p53 [1]): 200 ± 52 nM
p53 nuclear accumulation, % of cell nuclei (p53 [2]): 79.5±12.7 % of cell nuclei
chymotrypsin-like proteasome activity [3]: did not significantly reduce
IC50 (C33a cells; C33a cells, 48 hrs, Cell Titer Glo): 2300 nM
cell viability at 30 μM (C33a cells; C33a, 30 μM, 48h): decreased viability
cell viability (Fig 5D) (C33a cells; C33a, mutant p53): decreased viability
cell viability (Fig 5D) (SQ20B cells): decreased viability
trypsin-like proteasome activity [4]: did not significantly reduce
cell viability at 30 μM (siHA cells): decreased viability
